# Measured values as given in patent publication US9610294B2, “Methods and compositions for the treatment of fluid accumulation in and/or under the retina” (UNIVERSITE PARIS DESCARTES, priority 2010, dated 2017).
# “Also recorded” adds a separate entry of the source.
# Tested on: GFAP
# Test: GFAP immunostaining of retinas from aldosterone-injected eyes (glial activation)
# Format: in vivo, Lewis rats
# Settings: intravitreous injection, vs sham-injected retinas
# Procedure: Anesthesia of rats was induced by intramuscular injection of ketamine (100 mg/kg, Virbac, Carros, France) and chlorpromazine (0.65 mg/kg, LARGACTIL®, Sanofi Aventis, Livron sur Drome, France). Intravitreous injections were performed using microfine (300 μl) syringes with 30 G needles under topical anesthesia (tetracaine 1%, Aldrich, Lyon, France). Rat eyes were injected with 5 μl aldosterone diluted in 0.9% saline to obtain a concentration of 200 nM for injection, corresponding to a final concentration of 20 nM in the vitreous. Control rat eyes were injected with 5 μl saline. Twenty-four hrs after injection, rats were sacrificed. Eyes were then removed for retinal flat mounting, immunohistochemistry and morphological analysis respectively.
# Eyes were fixed for 15 min in 4% paraformaldehyde (PFA, LADD, Inland Europe, Conflans-sur-Lanterne, France). After washing, retinas were isolated, cut by 4 orthogonal incisions and post-fixed with acetone 100% at −20° C. for 15 min. They were then rehydrated with phosphate-buffered saline (PBS) containing 1% Triton X-I00, and incubated with a polyclonal rabbit antibody against AQP4 (1:100) or a polyclonal rabbit antibody against glial fibrillary acidic protein (GF AP, 1:100, Dako, Trappes, France) at room temperature under stirring overnight. […]
smiles,measurement,value
C[C@]12CCC(=O)C=C1CC[C@@H]1[C@@H]2[C@@H](O)C[C@]2(C=O)[C@@H](C(=O)CO)CC[C@@H]12 [aldosterone],"glial (RMG) activation, GFAP distribution",enhances glial activation; also recorded: strong activation of RMG
